{
  "source": "patent US7803571B2",
  "about": "“Method for identifying IRS inhibitors or agonists” (Sanfoi-Aventis Deutschland GmbH, priority 2003, dated 2010)",
  "assay_type_in_all_cases": "biochemical",
  "key": {"PKC": {"test_system": "PKC", "assay": "Phosphorylation of IRS-1 serine 612 by PKC, immunoblot with phosphoserine 612 antibody", "conditions": "PKC from rat brain and PKC-ζ, 30 min at 30° C.", "description": "(A) 0.5 μg of rIRS-1^449-664 was incubated with 0.5 μg of the different PKCs for 30 min at 30° C. and immunoblotted with an antibody against phosphoserine 612. A representative experiment is shown. (B) Binding of p85α to immobilized peptides corresponding to the IRS-1 amino acids 605 to 615 with phosphotyrosine 608 or (C) without phosphotyrosine using surface plasmon resonance (pY608 -DDGpYMPMSPGV and Y608 -DDGYMPMSPGV). Protein concentrations of p85α used were (from bottom to top): 1, 5,10, 25, 50,100, 250, 500 nM. (D) Inhibition of p85α binding by competition with soluble peptides pY608-DDGpYMPMSPGV or (E) pY608-pS612-DDGpYMPMpSPGV. The soluble peptides were also immobilized on the chip. (F) Half-maximum inhibitory concentrations (IC50) were obtained by plotting the SPR response at equilibrium (440 s after injection) versus the log peptide concentration.\nThe inventors assessed modification of this site by PKC using a specific IRS-1 phosphoserine 612 antibody (αpS^612)."}, "insulin receptor": {"molecular_target": "T1, insulin receptor (Rattus norvegicus, UniProt P15127)", "T1 construct": "from tissue; host or cells: rat liver", "T1 sequence (P15127 27-759 limits assumed)": "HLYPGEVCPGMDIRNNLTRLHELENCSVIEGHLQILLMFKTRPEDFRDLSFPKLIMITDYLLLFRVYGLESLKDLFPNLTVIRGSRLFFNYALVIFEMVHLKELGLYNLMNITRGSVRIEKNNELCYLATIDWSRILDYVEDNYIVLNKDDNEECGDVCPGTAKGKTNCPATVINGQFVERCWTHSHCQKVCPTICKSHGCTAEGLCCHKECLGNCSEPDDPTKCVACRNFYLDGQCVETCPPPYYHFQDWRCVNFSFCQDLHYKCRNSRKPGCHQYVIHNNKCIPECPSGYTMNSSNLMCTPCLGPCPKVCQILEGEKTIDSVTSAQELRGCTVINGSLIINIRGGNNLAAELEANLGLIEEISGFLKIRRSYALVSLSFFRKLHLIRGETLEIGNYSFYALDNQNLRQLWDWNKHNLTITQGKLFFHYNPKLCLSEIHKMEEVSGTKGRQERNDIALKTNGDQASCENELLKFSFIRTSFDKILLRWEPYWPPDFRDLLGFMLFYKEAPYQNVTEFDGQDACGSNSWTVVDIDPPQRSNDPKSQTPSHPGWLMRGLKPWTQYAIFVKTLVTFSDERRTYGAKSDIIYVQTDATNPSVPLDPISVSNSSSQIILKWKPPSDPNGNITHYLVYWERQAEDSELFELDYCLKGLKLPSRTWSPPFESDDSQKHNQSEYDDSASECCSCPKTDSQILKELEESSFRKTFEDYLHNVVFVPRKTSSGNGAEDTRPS", "assay": "In vitro phosphorylation assay: tyrosine phosphorylation of rIRS-1^449-664 by insulin receptor", "conditions": "BIM added for 10 min before substrate phosphorylation by IR", "description": "Rat liver was rapidly removed, immediately frozen in liquid nitrogen and processed as described (41). Briefly, 3.5 vol/wt of an ice-cold buffer consisting of 50 mM Hepes (pH 7.4), 1% Triton X-100 and 2× Complete Protease Inhibitors was added and the liver was homogenized using an Ultraturrax and a Potter-Elvehjem homogenizer, followed by centrifugation at 10,000×g for 10 min at 4° C. The resultant supernatant was slowly stirred at room temperature for 60 min, then again centrifuged at 100,000×g for 90 min at 4° C. The supernatant was then applied to an agarose-bound wheat germ agglutinin (WGA) column. The column was washed with 50 mM Hepes (pH 7.4), 0.1% Triton X-100, and bound glycoproteins were eluted from the WGA column with this buffer containing 0.3 M N-acetylglucoseamine.\n(§1) For rIRS-1^449-664 phosphorylation by insulin receptor, […] of the WGA-purified glycoprotein fraction was preincubated for 30 min at 30° C. with 100 nM of insulin in a phosphorylation buffer containing 20 mM Hepes (pH 7.4), 1 mM DTT, 10 mM MgCl2, 100 μg/ml bovine serum albumin, 0.2 mM Na3VO4, 1.7 mM CaCl2, 0.6 mg/ml phosphatidylserine, and 0.5 μg/ml okadaic acid. Autophosphorylation was initiated by the addition of ATP at a concentration of 50 μM and continued for 10 min at 30° C. Substrate phosphorylations were initiated by addition of equal volumes of […] (1 μg) with or without pre-treatment (30 min) by the PKC isoforms in the same buffer in the presence of 50 μM ATP and was allowed to proceed for 10 min at 30° C. in a final volume of 50 μl. The reaction was terminated by the addition of 6× sample buffer (0.35 M Tris-HCl (pH 6.8), 10.28% (w/v) SDS, 36% (v/v) glycerol; 0.6 M DTT, 0.012% (w/v) bromphenol blue) and boiling for 5 min. Proteins were separated by SDS-PAGE and analyzed by immunodetection with an anti-phosphotyrosine antibody after transfer to nitrocellulose. Serine/threonine phosphorylation of rIRS-1^449-664 by different PKC isoforms was assessed by incubating 1 μg rIRS-1^449-664 with 0.5 μg PKC-rb or PKC-ζ in phosphorylation buffer for 30 min at 30° C. in the presence of 50 μM ATP plus 2 μCi [γ-^32P]ATP in a volume of 20 μl. Proteins were resolved by SDS-PAGE and the stained and dried gels were subjected to autoradiography. The extent of phosphate incorporation was determined by Cerenkov counting of excised fragments.\nProteins were separated by SDS-PAGE using 8-18% gradient gels followed by transfer to nitrocellulose in a semi-dry blotting apparatus. […] All blots were quantified using the Lumilmager software. Significance of reported differences was evaluated by using the null hypothesis and t statistics for unpaired data. […]"}, "[1]": {"test_system": "PKC from rat brain (PKC-rb)", "assay": "Serine/threonine phosphorylation of rIRS-1^449-664 by PKC from rat brain ([32P]ATP, autoradiography)", "conditions": "0.5 μg PKC-rb, 1 μg rIRS-1^449-664, 50 μM ATP", "description": "as §1, with “The reaction was terminated by the addition of 6× sample buffer (0.35 M Tris-HCl (pH 6.8), 10.28% (w/v) SDS, 36% (v/v) glycerol; 0.6 M DTT, 0.012% (w/v) bromphenol blue) and boiling for 5 min.” left out, “Proteins were resolved by SDS-PAGE and the stained and dried gels were subjected to autoradiography.” left out, “fragments. […]” for “fragments.”"}},
  "data": [
    {"smiles": "CN(C)CCCn1cc(C2=C(c3c[nH]c4ccccc34)C(=O)NC2=O)c2ccccc21", "note": "[BIM, bisindolylmaleimide I]", "values": [
      {"measurement": "Phosphorylation of serine 612 of rIRS-1^449-664 by PKC in the presence of inhibitor", "setting": "PKC", "result": "clearly prevented the phosphorylation of this serine"},
      {"measurement": "Effect of inhibiting PKC-rb after phosphorylation of rIRS-1^449-664 on the reduced tyrosine phosphorylation and p85α association", "setting": "insulin receptor", "result": "did not modify this result"},
      {"measurement": "Phosphorylation of rIRS-1^449-664 by PKC-rb in the presence of inhibitor", "setting": "[1]", "result": "inhibited"}
    ]}
  ]
}
